Reference: US20230085307A1, “PYRIDAZINONE COMPOUND AND HERBICIDE” (NISSAN CHEMICAL CORPORATION, priority 2019, published 2023)

Key:
oval-leafed pondweed = assay: Test Example 1: herbicidal activity, application before weed generation under submerged conditions (Table 16, symbol C); assay type: in vivo, oval-leafed pondweed (Monochoria vaginalis); conditions: 320 g/ha applied herbicide
In short: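 Emulsion formulation, water-diluted to set dose, was put onto the flooded surface (4 cm depth, alluvial soil) the same day weeds were sown and 2.5-leaf rice transplanted. After 3 weeks at 25-30 °C under glass, each species was rated 0 (≤5% kill) to 5 (≥90% kill).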

Japanese bulrush = assay: Test Example 2: herbicidal activity, application during weed generation under submerged conditions (Table 17, symbol B); assay type: in vivo, Japanese bulrush (Schoenoplectus juncoides); conditions: AAH 320 g/ha; application during weed generation, submerged conditions
In short: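 Herbicide emulsion, diluted with water to the chosen amount, is applied onto 4 cm floodwater over alluvial soil where the weeds were co-sown and raised at 25–30° C. Application timing: 1–2 leaves. Assessment: three weeks afterwards.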

southern crabgrass = assay: Test Example 4: herbicidal effect by soil treatment (Table 19, symbol F); assay type: in vivo, southern crabgrass (Digitaria ciliaris); conditions: amount of applied herbicide 320 g/ha
In short: (§1)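 Pre-emergence style soil spray: seeds under ~1.5 cm sterilized diluvial soil received a uniform coat of emulsion diluted to the predetermined herbicide amount. Greenhouse 25–30° C; readout at week three on previously defined criteria.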

green foxtail = assay: Test Example 4: herbicidal effect by soil treatment (Table 19, symbol G); assay type: in vivo, green foxtail (Setaria viridis); conditions: amount of applied herbicide 320 g/ha
In short: as §1

barnyard grass = assay: Test Example 4: herbicidal effect by soil treatment (Table 19, symbol H); assay type: in vivo, barnyard grass (Echinochloa crus-galli); conditions: amount of applied herbicide 320 g/ha
In short: as §1

wild oat = assay: Test Example 4: herbicidal effect by soil treatment (Table 19, symbol I); assay type: in vivo, wild oat (Avena fatua); conditions: amount of applied herbicide 320 g/ha
In short: as §1

blackgrass = assay: Test Example 4: herbicidal effect by soil treatment (Table 19, symbol J); assay type: in vivo, blackgrass (Alopecurus myosuroides); conditions: amount of applied herbicide 320 g/ha
In short: as §1

velvetleaf [1] = assay: Test Example 4: herbicidal effect by soil treatment (Table 19, symbol M); assay type: in vivo, velvetleaf (Abutilon theophrasti); conditions: amount of applied herbicide 320 g/ha
In short: as §1

lambsquarters [2] = assay: Test Example 4: herbicidal effect by soil treatment (Table 19, symbol O); assay type: in vivo, lambsquarters (Chenopodium album); conditions: amount of applied herbicide 320 g/ha
In short: as §1

chickweed [3] = assay: Test Example 4: herbicidal effect by soil treatment (Table 19, symbol P); assay type: in vivo, common chickweed (Stellaria media); conditions: amount of applied herbicide 320 g/ha
In short: as §1

persian speedwell = assay: Test Example 4: herbicidal effect by soil treatment (Table 19, symbol R); assay type: in vivo, Persian speedwell (Veronica persica); conditions: amount of applied herbicide 320 g/ha
In short: as §1

Italian ryegrass = assay: Test Example 5: herbicidal effect by foliage application, plastic box (Table 20, symbol K); assay type: in vivo, Italian ryegrass (Lolium multiflorum); conditions: foliage application, 320 g/ha, evaluated three weeks after application
In short: (§2)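 Plants were sown into sterilized diluvial soil under about 1.5 cm cover and kept in a greenhouse at 25° C. to 30° C. Fourteen days on, foliage received an even spray of the diluted emulsion. Herbicidal or crop effect was judged three weeks afterwards.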

windgrass = assay: Test Example 5: herbicidal effect by foliage application, plastic box (Table 20, symbol L); assay type: in vivo, windgrass (Apera spica-venti); conditions: foliage application, 320 g/ha, evaluated three weeks after application
In short: as §2

velvetleaf [4] = assay: Test Example 5: herbicidal effect by foliage application, plastic box (Table 20, symbol M); assay type: in vivo, velvetleaf (Abutilon theophrasti); conditions: foliage application, 320 g/ha, evaluated three weeks after application
In short: as §2

redroot pigweed = assay: Test Example 5: herbicidal effect by foliage application, plastic box (Table 20, symbol N); assay type: in vivo, redroot pigweed (Amaranthus retroflexus); conditions: foliage application, 320 g/ha, evaluated three weeks after application
In short: as §2

lambsquarters [5] = assay: Test Example 5: herbicidal effect by foliage application, plastic box (Table 20, symbol O); assay type: in vivo, lambsquarters (Chenopodium album); conditions: foliage application, 320 g/ha, evaluated three weeks after application
In short: as §2

chickweed [6] = assay: Test Example 5: herbicidal effect by foliage application, plastic box (Table 20, symbol P); assay type: in vivo, common chickweed (Stellaria media); conditions: foliage application, 320 g/ha, evaluated three weeks after application
In short: as §2

Structure (SMILES)	Herbicidal effect on C: oval-leafed pondweed (grade 0-5) (oval-leafed pondweed)	herbicidal effect rating, B: Japanese bulrush (Japanese bulrush)	F: southern crabgrass, herbicidal effect rating (southern crabgrass)	G: green foxtail, herbicidal effect rating (green foxtail)	H: barnyard grass, herbicidal effect rating (barnyard grass)	I: wild oat, herbicidal effect rating (wild oat)	J: blackgrass, herbicidal effect rating (blackgrass)	M: velvetleaf, herbicidal effect rating (velvetleaf [1])	O: lambsquarters, herbicidal effect rating (lambsquarters [2])	P: chickweed, herbicidal effect rating (chickweed [3])	R: persian speedwell, herbicidal effect rating (persian speedwell)	herbicidal effect on K: Italian ryegrass (Italian ryegrass)	herbicidal effect on L: windgrass (windgrass)	herbicidal effect on M: velvetleaf (velvetleaf [4])	herbicidal effect on N: redroot pigweed (redroot pigweed)	herbicidal effect on O: lambsquarters (lambsquarters [5])	herbicidal effect on P: chickweed (chickweed [6])	herbicidal effect on K: Italian ryegrass (criteria 0-5) (Italian ryegrass)	herbicidal effect on L: windgrass (criteria 0-5) (windgrass)	herbicidal effect on M: velvetleaf (criteria 0-5) (velvetleaf [4])	other results
Cc1nn(C)c(=O)c(-c2c(-c3ccc(C(F)(F)F)cc3)sc3ccc(Cl)cc23)c1O [2-111]	0 (Herbicidal rate of 5% or less (almost no effect))	1 (Herbicidal rate of 5% or more and less than 20%)	0 (Herbicidal rate of 5% or less (almost no effect))	0 (Herbicidal rate of 5% or less (almost no effect))	0 (Herbicidal rate of 5% or less (almost no effect))	0 (Herbicidal rate of 5% or less (almost no effect))	5 (Herbicidal rate of 90% or more (almost completely withered))	0 (Herbicidal rate of 5% or less (almost no effect))	4 (Herbicidal rate of 70% or more and less than 90%)	0 (Herbicidal rate of 5% or less (almost no effect))	5 (Herbicidal rate of 90% or more (almost completely withered))	3 (Herbicidal rate of 40% or more and less than 70%)	5 (Herbicidal rate of 90% or more (almost completely withered))	3 (Herbicidal rate of 40% or more and less than 70%)	5 (Herbicidal rate of 90% or more (almost completely withered))	3 (Herbicidal rate of 40% or more and less than 70%)	5 (Herbicidal rate of 90% or more (almost completely withered))	–	–	–	–
CCCC(=O)Oc1c(C)nn(C)c(=O)c1-c1c(-c2ccccc2OC)sc2ccc(C)cc12 [2-139]	1 (Herbicidal rate of 5% or more and less than 20%)	3 (Herbicidal rate of 40% or more and less than 70%)	0 (Herbicidal rate of 5% or less (almost no effect))	0 (Herbicidal rate of 5% or less (almost no effect))	0 (Herbicidal rate of 5% or less (almost no effect))	0 (Herbicidal rate of 5% or less (almost no effect))	1 (Herbicidal rate of 5% or more and less than 20%)	0 (Herbicidal rate of 5% or less (almost no effect))	0 (Herbicidal rate of 5% or less (almost no effect))	5 (Herbicidal rate of 90% or more (almost completely withered))	4 (Herbicidal rate of 70% or more and less than 90%)	1 (Herbicidal rate of 5% or more and less than 20%)	0 (Herbicidal rate of 5% or less (almost no effect))	3 (Herbicidal rate of 40% or more and less than 70%)	4 (Herbicidal rate of 70% or more and less than 90%)	3 (Herbicidal rate of 40% or more and less than 70%)	5 (Herbicidal rate of 90% or more (almost completely withered))	–	–	–	–
C=Cc1ccc2sc(-c3ccccc3OC)c(-c3c(O)c(C)nn(C)c3=O)c2c1 [2-185]	5 (Herbicidal rate of 90% or more (almost completely withered))	0 (Herbicidal rate of 5% or less (almost no effect))	0 (Herbicidal rate of 5% or less (almost no effect))	0 (Herbicidal rate of 5% or less (almost no effect))	0 (Herbicidal rate of 5% or less (almost no effect))	0 (Herbicidal rate of 5% or less (almost no effect))	0 (Herbicidal rate of 5% or less (almost no effect))	0 (Herbicidal rate of 5% or less (almost no effect))	1 (Herbicidal rate of 5% or more and less than 20%)	0 (Herbicidal rate of 5% or less (almost no effect))	0 (Herbicidal rate of 5% or less (almost no effect))	–	–	–	–	–	–	0 (Herbicidal rate of 5% or less (almost no effect))	1 (Herbicidal rate of 5% or more and less than 20%)	5 (Herbicidal rate of 90% or more (almost completely withered))	herbicidal effect on N: redroot pigweed (criteria 0-5) (redroot pigweed): 5 (Herbicidal rate of 90% or more (almost completely withered)); herbicidal effect on O: lambsquarters (criteria 0-5) (lambsquarters [5]): 4 (Herbicidal rate of 70% or more and less than 90%); herbicidal effect on P: chickweed (criteria 0-5) (chickweed [6]): 5 (Herbicidal rate of 90% or more (almost completely withered))
Cc1nn(C)c(=O)c(-c2c(-c3ccccc3)sc3ccc(F)cc23)c1O [2-197]	3 (Herbicidal rate of 40% or more and less than 70%)	3 (Herbicidal rate of 40% or more and less than 70%)	4 (Herbicidal rate of 70% or more and less than 90%)	4 (Herbicidal rate of 70% or more and less than 90%)	5 (Herbicidal rate of 90% or more (almost completely withered))	1 (Herbicidal rate of 5% or more and less than 20%)	3 (Herbicidal rate of 40% or more and less than 70%)	4 (Herbicidal rate of 70% or more and less than 90%)	5 (Herbicidal rate of 90% or more (almost completely withered))	3 (Herbicidal rate of 40% or more and less than 70%)	3 (Herbicidal rate of 40% or more and less than 70%)	–	–	–	–	–	–	4 (Herbicidal rate of 70% or more and less than 90%)	4 (Herbicidal rate of 70% or more and less than 90%)	5 (Herbicidal rate of 90% or more (almost completely withered))	herbicidal effect on N: redroot pigweed (criteria 0-5) (redroot pigweed): 5 (Herbicidal rate of 90% or more (almost completely withered)); herbicidal effect on O: lambsquarters (criteria 0-5) (lambsquarters [5]): 5 (Herbicidal rate of 90% or more (almost completely withered)); herbicidal effect on P: chickweed (criteria 0-5) (chickweed [6]): 5 (Herbicidal rate of 90% or more (almost completely withered))
